Laboratory results: ChEMBL document CHEMBL1201862, “PubChem BioAssay data set” (2004)
Where “and” joins values, the source holds several entries; their conditions need not be identical. Equal values may be shown once.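 Test compounds were applied to cells in 96-well plates for 48 hours at 5 doses. The concentration for 50% growth inhibition is given as GI50.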 Calls of active or inactive are those of the source. Rule as the data show it: active = GI50 up to about 1.1 µM and inactive = higher.

Columns and labels:
Assay in all cases: inhibition of tumour cell growth, NCI panel, 48 h
HCT-15 = test system: HCT-15
DMS-114 = test system: DMS-114
CAKI-1 = test system: CAKI-1
Malme-3M = test system: Malme-3M
SN12C = test system: SN12C
HT-29 = test system: HT-29
OVCAR-8 = test system: OVCAR-8
SNB-78 = test system: SNB-78
LXFL 529 = test system: LXFL 529
TK-10 = test system: TK-10
CCRF-CEM = test system: CCRF-CEM
U-251 = test system: U-251
NCI-H522 = test system: NCI-H522
UO-31 = test system: UO-31
NCI-H226 = test system: NCI-H226
M14 = test system: M14
SK-MEL-28 = test system: SK-MEL-28
KM-20L2 = test system: KM-20L2
XF498 = test system: XF498
COLO 205 = test system: COLO 205
SW-620 = test system: SW-620
NCI-H23 = test system: NCI-H23
SK-MEL-2 = test system: SK-MEL-2
M19-MEL = test system: M19-MEL
OVCAR-4 = test system: OVCAR-4
K562 = test system: K562
SK-OV-3 = test system: SK-OV-3
RPMI-8226 = test system: RPMI-8226
SK-MEL-5 = test system: SK-MEL-5
HOP-62 = test system: HOP-62
HOP-92 = test system: HOP-92
A498 = test system: A498
EKVX = test system: EKVX
SF-295 = test system: SF-295
SF-539 = test system: SF-539
SNB-19 = test system: SNB-19
HCT-116 = test system: HCT-116
ACHN = test system: ACHN
IGROV-1 = test system: IGROV-1
OVCAR-5 = test system: OVCAR-5
UACC-62 = test system: UACC-62
LOX IMVI = test system: LOX IMVI
786-0 = test system: 786-0
HCC 2998 = test system: HCC 2998
KM12 = test system: KM12
UACC-257 = test system: UACC-257
NCI-H460 = test system: NCI-H460
HL-60 = test system: HL-60
OVCAR-3 = test system: OVCAR-3
DLD-1 = test system: DLD-1
A549 = test system: A549
MOLT-4 = test system: MOLT-4
SF-268 = test system: SF-268
SR = test system: SR
DMS-273 = test system: DMS-273
BT-549 = test system: BT-549
PC-3 = test system: PC-3
MCF7 = test system: MCF7
Hs-578T = test system: Hs-578T
MDA-MB-435 = test system: MDA-MB-435
MDA-MB-231 = test system: MDA-MB-231
DU-145 = test system: DU-145
MDA-N = test system: MDA-N

Q: For Cc1cc(-c2ccccc2)nc(Nc2cc3ccccc3[nH]2)n1, which GI50 (HCT-15) is on record?
A: Its GI50 is greater than 100 µM.

Q: And the GI50 (DMS-114)?
A: Its GI50 is > 100 µM (inactive).

Q: What about the GI50 (CAKI-1) of the same compound?
A: The GI50 was > 100 µM (inactive).

Q: And the GI50 (Malme-3M)?
A: Its GI50 is > 100 µM (inactive).

Q: And the GI50 (SN12C)?
A: Its GI50 is > 100 µM (inactive).

Q: And the GI50 (HT-29)?
A: The GI50 was > 100 µM (inactive).

Q: What about the GI50 (OVCAR-8) of the same compound?
A: The GI50 was > 100 µM (inactive).

Q: And the GI50 (SNB-78)?
A: Its GI50 is > 100 µM (inactive).

Q: What about the GI50 (LXFL 529) of the same compound?
A: The GI50 was > 100 µM (inactive).

Q: And the GI50 (TK-10)?
A: The GI50 was > 100 µM (inactive).

Q: And the GI50 (CCRF-CEM)?
A: Its GI50 is > 100 µM (inactive).

Q: And the GI50 (U-251)?
A: The GI50 was > 100 µM (inactive).

Q: And the GI50 (NCI-H522)?
A: Its GI50 is > 100 µM (inactive).

Q: What about the GI50 (UO-31) of the same compound?
A: The GI50 was > 100 µM (inactive).

Q: What about the GI50 (NCI-H226) of the same compound?
A: Its GI50 is > 100 µM (inactive).

Q: And the GI50 (M14)?
A: Its GI50 is > 100 µM (inactive).

Q: What about the GI50 (SK-MEL-28) of the same compound?
A: The GI50 was > 100 µM (inactive).

Q: And the GI50 (KM-20L2)?
A: The GI50 was > 100 µM (inactive).

Q: What about the GI50 (XF498) of the same compound?
A: The GI50 was > 100 µM (inactive).

Q: And the GI50 (COLO 205)?
A: Its GI50 is > 100 µM (inactive).

Q: What about the GI50 (SW-620) of the same compound?
A: Its GI50 is > 100 µM (inactive).

Q: What about the GI50 (NCI-H23) of the same compound?
A: The GI50 was > 100 µM (inactive).

Q: What about the GI50 (SK-MEL-2) of the same compound?
A: The GI50 was > 100 µM (inactive).

Q: And the GI50 (M19-MEL)?
A: Its GI50 is > 100 µM (inactive).

Q: And the GI50 (OVCAR-4)?
A: Its GI50 is > 100 µM (inactive).

Q: What about the GI50 (K562) of the same compound?
A: The GI50 was > 100 µM (inactive).

Q: What about the GI50 (SK-OV-3) of the same compound?
A: The GI50 was > 100 µM (inactive).

Q: What about the GI50 (RPMI-8226) of the same compound?
A: Its GI50 is > 100 µM (inactive).

Q: What about the GI50 (SK-MEL-5) of the same compound?
A: Its GI50 is > 100 µM (inactive).

Q: What about the GI50 (HOP-62) of the same compound?
A: Its GI50 is > 100 µM (inactive).

Q: What about the GI50 (HOP-92) of the same compound?
A: The GI50 was 22.2 µM (inactive).

Q: What about the GI50 (A498) of the same compound?
A: The GI50 was > 100 µM (inactive).

Q: And the GI50 (EKVX)?
A: The GI50 was 89.3 µM (inactive).

Q: What about the GI50 (SF-295) of the same compound?
A: Its GI50 is > 100 µM (inactive).

Q: What about the GI50 (SF-539) of the same compound?
A: The GI50 was > 100 µM (inactive).

Q: And the GI50 (SNB-19)?
A: Its GI50 is > 100 µM (inactive).

Q: What about the GI50 (HCT-116) of the same compound?
A: Its GI50 is > 100 µM (inactive).

Q: And the GI50 (ACHN)?
A: The GI50 was > 100 µM (inactive).

Q: What about the GI50 (IGROV-1) of the same compound?
A: Its GI50 is > 100 µM (inactive).

Q: And the GI50 (OVCAR-5)?
A: Its GI50 is > 100 µM (inactive).

Q: What about the GI50 (UACC-62) of the same compound?
A: Its GI50 is > 100 µM (inactive).

Q: What about the GI50 (LOX IMVI) of the same compound?
A: Its GI50 is > 100 µM (inactive).

Q: What about the GI50 (786-0) of the same compound?
A: The GI50 was > 100 µM (inactive).

Q: What about the GI50 (HCC 2998) of the same compound?
A: Its GI50 is > 100 µM (inactive).

Q: What about the GI50 (KM12) of the same compound?
A: Its GI50 is > 100 µM (inactive).

Q: And the GI50 (UACC-257)?
A: The GI50 was > 100 µM (inactive).

Q: What about the GI50 (NCI-H460) of the same compound?
A: The GI50 was > 100 µM (inactive).

Q: And the GI50 (HL-60)?
A: The GI50 was > 100 µM (inactive).

Q: And the GI50 (OVCAR-3)?
A: Its GI50 is > 100 µM (inactive).

Q: What about the GI50 (DLD-1) of the same compound?
A: Its GI50 is > 100 µM (inactive).

Q: What about the GI50 (A549) of the same compound?
A: Its GI50 is > 100 µM (inactive).

Q: And the GI50 (MOLT-4)?
A: The GI50 was > 100 µM (inactive).

Q: What about the GI50 (SF-268) of the same compound?
A: The GI50 was > 100 µM (inactive).

Q: What about the GI50 (SR) of the same compound?
A: The GI50 was > 100 µM (inactive).

Q: With Nc1nc(N)c2nc(CNc3ccc(C(=O)NC(CCCNC(=O)c4ccccc4C(=O)O)C(=O)O)cc3)cnc2n1 (stereo not given) as the compound, how does the GI50 (HCT-15) read?
A: The GI50 was 0.01 µM.

Q: What about the GI50 (DMS-273) of the same compound?
A: The GI50 was 0.01 µM (active).

Q: And the GI50 (CAKI-1)?
A: Its GI50 is 0.01 µM (active).

Q: What about the GI50 (HT-29) of the same compound?
A: The GI50 was < 0.01 µM (active).

Q: What about the GI50 (OVCAR-8) of the same compound?
A: The GI50 was < 0.01 µM (active).

Q: What about the GI50 (BT-549) of the same compound?
A: The GI50 was 6.18 µM (inactive).

Q: And the GI50 (LXFL 529)?
A: The GI50 was 0.000762 µM (active).

Q: And the GI50 (U-251)?
A: Its GI50 is < 10 nM (active) and 14.3 nM (active).

Q: What about the GI50 (NCI-H522) of the same compound?
A: Its GI50 is < 0.01 µM (active).

Q: And the GI50 (PC-3)?
A: The GI50 was 0.01 µM (active).

Q: And the GI50 (M14)?
A: The GI50 was 0.01 µM (active).

Q: What about the GI50 (KM-20L2) of the same compound?
A: Its GI50 is 0.00875 µM (active).

Q: What about the GI50 (XF498) of the same compound?
A: Its GI50 is > 100 µM (inactive).

Q: And the GI50 (MCF7)?
A: Its GI50 is 0.01 µM (active).

Q: What about the GI50 (NCI-H23) of the same compound?
A: The GI50 was < 0.01 µM (active).

Q: What about the GI50 (RPMI-8226) of the same compound?
A: The GI50 was < 0.01 µM (active).

Q: What about the GI50 (SK-MEL-5) of the same compound?
A: Its GI50 is 10 nM (active) and < 18.4 nM (active).

Q: And the GI50 (SF-539)?
A: The GI50 was < 0.01 µM (active).

Q: And the GI50 (Hs-578T)?
A: The GI50 was > 100 µM (inactive).

Q: And the GI50 (SNB-19)?
A: The GI50 was < 20.2 nM (active) and 21.6 nM (active).

Q: What about the GI50 (HCT-116) of the same compound?
A: Its GI50 is < 0.215 µM (active).

Q: What about the GI50 (ACHN) of the same compound?
A: Its GI50 is 0.01 µM (active).

Q: What about the GI50 (IGROV-1) of the same compound?
A: Its GI50 is < 0.01 µM (active).

Q: And the GI50 (MDA-MB-435)?
A: The GI50 was 0.00311 µM (active).

Q: And the GI50 (LOX IMVI)?
A: Its GI50 is < 0.01 µM (active).

Q: And the GI50 (MDA-MB-231)?
A: The GI50 was > 100 µM (inactive).

Q: And the GI50 (786-0)?
A: Its GI50 is 0.01 µM (active).

Q: What about the GI50 (HCC 2998) of the same compound?
A: Its GI50 is < 0.01 µM (active).

Q: And the GI50 (DU-145)?
A: Its GI50 is 0.01 µM (active).

Q: What about the GI50 (NCI-H460) of the same compound?
A: Its GI50 is < 0.01 µM (active).

Q: And the GI50 (HL-60)?
A: Its GI50 is < 0.01 µM (active).

Q: And the GI50 (DLD-1)?
A: The GI50 was < 0.01 µM (active).

Q: And the GI50 (A549)?
A: The GI50 was < 0.01 µM (active).

Q: And the GI50 (MDA-N)?
A: Its GI50 is 0.01 µM (active).

Q: And the GI50 (MOLT-4)?
A: The GI50 was < 19.4 nM (active) and < 10 nM (active).

Q: And the GI50 (SR)?
A: Its GI50 is 0.01 µM (active).
